What was measured:
[1] = tested on: FADD−/− Jurkat cells; test: Necroptosis inhibition assay, TNF-α-induced necroptosis (CellTiter-Glo 2.0); type: cell-based, human; details: TNF-α 15 ng/mL; for Necroptosis inhibition assay (Rescue %) 1 μM: compound 1 μM; for Necroptosis inhibition assay (Rescue %) 10 μM: compound 10 μM
Procedure, shortened: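 Necroptosis induced by 15 ng/mL TNF-α (final) for 20–24 h at 37 °C, after a 30 min room-temperature pretreatment of FADD-deficient Jurkat cells with 0.1, 1 or 10 μM compound. ATP-based luminescence gave viability, from which inhibition rate and cytotoxicity were derived.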

[2] = target: T1, MLKL (Homo sapiens, UniProt Q8NB16); test: Measurement of binding affinity with MLKL receptor (competitive binding assay, Kd); parameters: made in house; host or cells: HEK 293 cell line (T7 phage in E. coli BL21-derived host is also described)
T1 sequence (Q8NB16 1-471): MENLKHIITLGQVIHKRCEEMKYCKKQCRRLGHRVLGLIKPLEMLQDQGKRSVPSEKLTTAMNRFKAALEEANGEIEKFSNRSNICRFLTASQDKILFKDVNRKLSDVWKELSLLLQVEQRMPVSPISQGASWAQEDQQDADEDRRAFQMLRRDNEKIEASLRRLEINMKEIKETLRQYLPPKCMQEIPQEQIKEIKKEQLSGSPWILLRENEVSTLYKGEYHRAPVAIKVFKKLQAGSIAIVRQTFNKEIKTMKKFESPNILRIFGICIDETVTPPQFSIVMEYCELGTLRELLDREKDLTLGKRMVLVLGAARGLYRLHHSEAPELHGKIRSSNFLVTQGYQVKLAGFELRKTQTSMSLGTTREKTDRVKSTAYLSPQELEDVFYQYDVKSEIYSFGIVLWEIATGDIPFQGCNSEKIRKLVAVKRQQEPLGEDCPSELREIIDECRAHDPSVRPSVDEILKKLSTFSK
Procedure, shortened: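 HEK 293-expressed, DNA-tagged MLKL; ligand beads blocked with biotin and SeaBlock/1% BSA/0.05% Tween 20/1 mM DTT buffer. Cpd from 111× DMSO stock, 0.9% DMSO final. Eluted kinase by qPCR → Kd.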

[3] = target: T1, MLKL; test: MLKL degradation assay in HepG2 cell line (western blot); type: cell-based; parameters: endogenous in cells; host or cells: HepG2 or HaCaT; details: cell line not given; for Degradation assay (Degradation %) 1 μM: compound 1 μM; for Degradation assay (Degradation %) 10 μM: compound 10 μM
Procedure, shortened: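 Western blot chemiluminescence of MLKL in equal-protein lysates (10-15 μg, BCA-adjusted). Before lysis, HepG2 cells were exposed to 1 or 10 μM (final) test compound for 20-24 h at 37 °C.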

Compound | Necroptosis inhibition assay (Rescue %) 1 μM ([1]; FADD−/− Jurkat cells) [%] | Necroptosis inhibition assay (Rescue %) 10 μM ([1]; FADD−/− Jurkat cells) [%] | Kd [2] [nM] | Degradation assay (Degradation %) 1 μM [3] [%] | Degradation assay (Degradation %) 10 μM [3] [%] | Necroptosis inhibition assay (Rescue %) 1 μM [1] [%] | Necroptosis inhibition assay (Rescue %) 10 μM [1] [%]
Nc1ncc(-c2cnn(C3CCN(CCOC4CCN(C(=O)c5cccc(C(=O)NC6CCC(=O)NC6=O)c5)CC4)CC3)c2)nc1C(=O)O[C@@H](C(=O)Nc1ccc(F)cc1)c1ccccc1 (stereo partly drawn) [TDH-545, (R)-2-((4-fluorophenyl)amino)-2-oxo-1-phenylethyl 3-amino-6-(1-(1-(2-((1-(3-((2,6-dioxopiperidin-3-yl)carbamoyl)benzoyl)piperidin-4-yl)oxy)ethyl)piperidin-4-yl)-1H-pyrazol-4-yl)pyrazine-2-carboxylate] | 32.16 | 41.07 | 0.28 | 65.64 | 74.02 | – | –
Nc1ncc(-c2cnn(C3CCN(CCOCCOCCNC(=O)CNc4ccc5c(c4)C(=O)N(C4CCC(=O)NC4=O)C5=O)CC3)c2)nc1C(=O)O[C@@H](C(=O)Nc1ccc(F)cc1)c1ccccc1 (stereo partly drawn) [TDH-103, (R)-2-((4-fluorophenyl)amino)-2-oxo-1-phenylethyl 3-amino-6-(1-(1-(2-(2-(2-(2-((2-(2,6-dioxopiperidin-3-yl)-1,3-dioxoisoindolin-5-yl)amino)acetamido)ethoxy)ethoxy)ethyl)piperidin-4-yl)-1H-pyrazol-4-yl)pyrazine-2-carboxylate] | – | – | 1.4 | 5.5 | 52.04 | 34.93 | 59.65
Nc1ncc(-c2cnn(C3CCN(CCOC4CCN(C(=O)CCc5ccc6c(c5)C(=O)N(C5CCC(=O)NC5=O)C6=O)CC4)CC3)c2)nc1C(=O)O[C@@H](C(=O)Nc1ccc(F)cc1)c1ccccc1 (stereo partly drawn) [TDH-379, (R)-2-((4-fluorophenyl)amino)-2-oxo-1-phenylethyl 3-amino-6-(1-(1-(2-((1-(3-(2-(2,6-dioxopiperidin-3-yl)-1,3-dioxoisoindolin-5-yl)propanoyl)piperidin-4-yl)oxy)ethyl)piperidin-4-yl)-1H-pyrazol-4-yl)pyrazine-2-carboxylate] | – | – | 2.9 | 69.78 | 88.75 | 36.70 | 28.98
Nc1ncc(-c2cnn(C3CCN(CCC4CCN(C(=O)CCc5cccc6c5CN(C5CCC(=O)NC5=O)C6=O)CC4)CC3)c2)nc1C(=O)O[C@@H](C(=O)Nc1ccc(F)cc1)c1ccccc1 (stereo partly drawn) [TDH-385, (R)-2-((4-fluorophenyl)amino)-2-oxo-1-phenylethyl 3-amino-6-(1-(1-(2-(1-(3-(2-(2,6-dioxopiperidin-3-yl)-1-oxoisoindolin-4-yl)propanoyl)piperidin-4-yl)ethyl)piperidin-4-yl)-1H-pyrazol-4-yl)pyrazine-2-carboxylate] | – | – | 0.76 | 94.85 | 85.11 | 53.62 | 14.09
Nc1ncc(-c2cnn([C@H]3CCN(CC4CCN(C(=O)CNc5cccc6c5C(=O)N(C5CCC(=O)NC5=O)C6=O)CC4)C3)c2)nc1C(=O)OC(C(=O)Nc1ccc(F)cc1)c1ccccc1 (stereo partly drawn) [TDH-281, 2-((4-fluorophenyl)amino)-2-oxo-1-phenylethyl 3-amino-6-(1-((3S)-1-((1-((2-(2,6-dioxopiperidin-3-yl)-1,3-dioxoisoindolin-4-yl)glycyl)piperidin-4-yl)methyl)pyrrolidin-3-yl)-1H-pyrazol-4-yl)pyrazine-2-carboxylate] | – | – | 5.7 | 45.01 | 10.1 | 29.65 | 26.95
Nc1ncc(-c2cnn(C3CCN(C4CC5(CCN(CC6CCN(C(=O)c7cccc(C(=O)NC8CCC(=O)NC8=O)c7)CC6)CC5)C4)CC3)c2)nc1C(=O)O[C@@H](C(=O)Nc1ccc(F)cc1)c1ccccc1 (stereo partly drawn) [TDH-544, (R)-2-((4-fluorophenyl)amino)-2-oxo-1-phenylethyl 3-amino-6-(1-(1-(7-((1-(3-((2,6-dioxopiperidin-3-yl)carbamoyl)benzoyl)piperidin-4-yl)methyl)-7-azaspiro[3.5]nonan-2-yl)piperidin-4-yl)-1H-pyrazol-4-yl)pyrazine-2-carboxylate] | 35.33 | 31.42 | 0.5 | 69.45 | 82.68 | – | –
Nc1ncc(-c2cnn(C3CCN(CCOCCOCCNC(=O)C4CCN(c5cccc6c5C(=O)N(C5CCC(=O)NC5=O)C6=O)CC4)CC3)c2)nc1C(=O)O[C@@H](C(=O)Nc1ccc(F)cc1)c1ccccc1 (stereo partly drawn) [TDH-110, (R)-2-((4-fluorophenyl)amino)-2-oxo-1-phenylethyl 3-amino-6-(1-(1-(2-(2-(2-(1-(2-(2,6-dioxopiperidin-3-yl)-1,3-dioxoisoindolin-4-yl)piperidine-4-carboxamido)ethoxy)ethoxy)ethyl)piperidin-4-yl)-1H-pyrazol-4-yl)pyrazine-2-carboxylate] | – | – | 5.2 | 9.84 | 46.89 | 55.93 | 72.8
Nc1ncc(-c2cnn(C3CCN(CC4CCN(CC5CCN(C(=O)COc6ccc7c(c6)C(=O)N(C6CCC(=O)NC6=O)C7=O)CC5)CC4)CC3)c2)nc1C(=O)O[C@@H](C(=O)Nc1ccc(F)cc1)c1ccccc1 (stereo partly drawn) [TDH-425, (R)-2-((4-fluorophenyl)amino)-2-oxo-1-phenylethyl 3-amino-6-(1-(1-((1-((1-(2-((2-(2,6-dioxopiperidin-3-yl)-1,3-dioxoisoindolin-5-yl)oxy)acetyl)piperidin-4-yl)methyl)piperidin-4-yl)methyl)piperidin-4-yl)-1H-pyrazol-4-yl)pyrazine-2-carboxylate] | 67.90 | – | 0.34 | 50.12 | 88.68 | – | –
Nc1ncc(-c2cnn(C3CCN(CCOCCNC(=O)C4CN(c5ccc6c(c5)C(=O)N(C5CCC(=O)NC5=O)C6=O)C4)CC3)c2)nc1C(=O)O[C@@H](C(=O)Nc1ccc(F)cc1)c1ccccc1 (stereo partly drawn) [TDH-127, (R)-2-((4-fluorophenyl)amino)-2-oxo-1-phenylethyl 3-amino-6-(1-(1-(2-(2-(1-(2-(2,6-dioxopiperidin-3-yl)-1,3-dioxoisoindolin-5-yl)azetidine-3-carboxamido)ethoxy)ethyl)piperidin-4-yl)-1H-pyrazol-4-yl)pyrazine-2-carboxylate] | – | – | 5.6 | 4.37 | 43.64 | 34.64 | 49.65
Nc1ncc(-c2cnn(C3CCN(CC4CCN(C(=O)COc5cccc6c5C(=O)N(C5CCC(=O)NC5=O)C6=O)CC4)CC3)c2)nc1C(=O)O[C@@H](C(=O)Nc1ccc(F)cc1)c1ccccc1 (stereo partly drawn) [TDH-148, (R)-2-((4-fluorophenyl)amino)-2-oxo-1-phenylethyl 3-amino-6-(1-(1-((1-(2-((2-(2,6-dioxopiperidin-3-yl)-1,3-dioxoisoindolin-4-yl)oxy)acetyl)piperidin-4-yl)methyl)piperidin-4-yl)-1H-pyrazol-4-yl)pyrazine-2-carboxylate] | – | – | 1.4 | 46.29 | 48.24 | 54.25 | 15.48
Nc1ncc(-c2cnn(C3CCN(CCCN4CCN(C(=O)C5CN(C6=CC(=O)N(C7CCC(=O)NC7=O)C6=O)C5)CC4)CC3)c2)nc1C(=O)O[C@@H](C(=O)Nc1ccc(F)cc1)c1ccccc1 (stereo partly drawn) [TDH-532, (R)-2-((4-fluorophenyl)amino)-2-oxo-1-phenylethyl 3-amino-6-(1-(1-(3-(4-(1-(1-(2,6-dioxopiperidin-3-yl)-2,5-dioxo-2,5-dihydro-1H-pyrrol-3-yl)azetidine-3-carbonyl)piperazin-1-yl)propyl)piperidin-4-yl)-1H-pyrazol-4-yl)pyrazine-2-carboxylate] | 21.37 | 24.82 | 1.4 | 73.88 | 38.71 | – | –

From US20240252488A1 (KOREA RESEARCH INSTITUTE OF CHEMICAL TECHNOLOGY, priority 2020, published 2024)
